Each block holds one molecule with its values, some of them ahead of it.
Columns and labels:
NCI-H441 [1] = experiment: In vivo combination of 224G11 and Docetaxel on NCI-H441 xenograft model; parameters: species or system Athymic nude mice; conditions: D11 to D35; Docetaxel 7.5 mg/kg i.p.
Procedure: (§1) NCI-H441 cells from ATCC were routinely cultured in RPMI 1640 medium, 10% FCS, 1% L-Glutamine. Cells were split two days before engraftment being in exponential phase of growth. Nine million NCI-H441 cells were engrafted to Athymic nude mice. […] Mice were treated i.p. either with a loading dose of 2 mg of 224G11 Mab/mouse and then twice a week with 1 mg of antibody/mouse or with 4 injections of Docetaxel (D5, D12, D19, D26) at 7.5 mg/kg. A third group administered with the combine treatment was also included. Docetaxel was given by i.p. injections. Tumor volume was measured twice a week and calculated by the formula: π/6×length×width×height and animal weights were monitored every day over the period of Docetaxel treatment. Statistical analysis was performed at each measured time using either a t-test or a Mann-Whitney test. […] Results are represented in FIG. 47.

NCI-H441 [2] = experiment: In vivo combination of 224G11 and Doxorubicin on NCI-H441 xenograft model; parameters: species or system Athymic nude mice; conditions: D11 to D39; Doxorubicin 5 mg/kg i.v.
Procedure: as §1, with “growth. Ten” for “growth. Nine”, “of Doxorubicin” for “of Docetaxel”, “at 5” for “at 7.5”, “included. Doxorubicin” for “included. Docetaxel”, “by i.v.” for “by i.p.”, “FIG. 46.” for “FIG. 47.”

c-Met-Fc = target: T1, c-Met-Fc (Homo sapiens, UniProt P08581); experiment: Displacement of [125I]-HGF binding to immobilized c-Met; conditions: 0.1 pM to 1 μM
T1 construct: c-Met extracellular domain fusion protein (10-15 g/dose/mouse) (R&D Systems, Catalog #358MT); purchased R&D Systems
T1 sequence (P08581 25-932 limits assumed): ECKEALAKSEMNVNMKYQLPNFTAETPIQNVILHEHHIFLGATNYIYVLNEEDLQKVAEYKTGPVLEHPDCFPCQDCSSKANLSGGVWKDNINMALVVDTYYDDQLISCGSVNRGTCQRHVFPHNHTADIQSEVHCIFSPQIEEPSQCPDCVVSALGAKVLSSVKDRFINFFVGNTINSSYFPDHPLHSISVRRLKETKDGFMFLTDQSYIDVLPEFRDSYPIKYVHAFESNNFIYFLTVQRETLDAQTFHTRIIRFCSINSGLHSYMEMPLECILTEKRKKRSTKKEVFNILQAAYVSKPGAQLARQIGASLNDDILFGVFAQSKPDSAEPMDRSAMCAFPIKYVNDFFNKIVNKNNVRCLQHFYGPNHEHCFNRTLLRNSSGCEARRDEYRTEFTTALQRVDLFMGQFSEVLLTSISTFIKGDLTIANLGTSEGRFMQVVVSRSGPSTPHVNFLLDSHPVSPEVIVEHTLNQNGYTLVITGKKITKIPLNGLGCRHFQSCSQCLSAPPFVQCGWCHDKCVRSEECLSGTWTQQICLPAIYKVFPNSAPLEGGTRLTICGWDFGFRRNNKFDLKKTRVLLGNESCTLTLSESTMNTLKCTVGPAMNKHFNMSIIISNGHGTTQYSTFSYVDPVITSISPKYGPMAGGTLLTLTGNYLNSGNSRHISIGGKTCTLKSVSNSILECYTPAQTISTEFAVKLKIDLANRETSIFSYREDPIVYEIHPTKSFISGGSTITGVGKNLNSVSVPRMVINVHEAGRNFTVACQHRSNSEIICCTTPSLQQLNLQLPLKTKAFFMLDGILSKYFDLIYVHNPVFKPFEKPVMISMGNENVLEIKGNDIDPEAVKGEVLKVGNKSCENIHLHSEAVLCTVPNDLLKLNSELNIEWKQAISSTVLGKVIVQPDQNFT
Procedure: To determine whether the anti-c-Met antibodies were able to displace HGF, binding experiments were set up. Briefly, protein A FlashPlate 96-well microplates (Perkin Elmer) were saturated with 0.5% gelatine in PBS (200 μl/well, 2 h at room temperature) before adding recombinant c-Met-Fc (R&D Systems) as a coating protein. […] of a 1 μg/ml c-Met-Fc solution in PBS were added to each well. Plates were then incubated overnight at 4° C. Free residual Protein A sites were further saturated with a non relevant hIgG (0.5 μg/well in PBS) for 2 h at room temperature. Plates were washed with PBS after each step.
For competition assays, binding of [^125I]-HGF (specific activity ˜2,000 Ci/mmol) at 200 pM to immobilized c-Met was measured in the presence of varying concentrations of the anti-c-Met monoclonal antibodies 11E1, 224G11, 223C4, 227H1 or HGF (R&D Systems) ranging from 0.1 pM to 1 μM in PBS pH 7.4. The plates were incubated at room temperature for 6 h, then counted on a Packard Top Count Microplate Scintillation Counter. Non specific binding was determined in the presence of […] of HGF. The monoclonal antibody 9G4, which is not directed at c-Met but specifically recognizes an E. coli protein, was used as mouse IgG1 isotype control.
Percent of total specific [^125I]-HGF binding was plotted as a function of ligand concentration on semilog graphs. […]

G55 = conditions: glioblastoma growing independently of HGF; cited from earlier work

Molecule: CC(=O)O[C@@]12CO[C@@H]1C[C@H](O)[C@@]1(C)C(=O)[C@H](O)C3=C(C)[C@@H](OC(=O)[C@H](O)[C@@H](NC(=O)OC(C)(C)C)c4ccccc4)C[C@@](O)([C@@H](OC(=O)c4ccccc4)[C@H]21)C3(C)C [Docetaxel, reference compound]
anti-tumor activity compared to the control group (NCI-H441 [1]): significant anti-tumor activity

Molecule: COc1cccc2c1C(=O)c1c(O)c3c(c(O)c1C2=O)C[C@@](O)(C(=O)CO)C[C@@H]3O[C@H]1C[C@H](N)[C@H](O)[C@H](C)O1 [Doxorubicin, reference compound]
anti-tumor activity compared to the control group (NCI-H441 [2]): significant anti-tumor activity

displacement of [125I]-HGF binding to immobilized c-Met (c-Met-Fc): fully displace
Molecule: HGF: hepatocyte growth factor (R&D Systems), c-Met ligand used as unlabeled competitor

B1: OA5D5: monovalent engineered form of 5D5 produced as a recombinant protein in E. Coli (Genentech) (antibody, chains of the INN, looked up, V domains shown)
VH: EVQLVESGGGLVQPGGSLRLSCAASGYTFTSYWLHWVRQAPGKGLEWVGMIDPSNSDTRFNPNFKDRFTISADTSKNTAYLQMNSLRAEDTAVYYCATYRSYVTPLDYWGQGTLVTVSS
VL: DIQMTQSPSSLSASVGDRVTITCKSSQSLLYTSSQKNYLAWYQQKPGKAPKLLIYWASTRESGVPSRFSGSGSGTDFTLTISSLQPEDFATYYCQQYYAYPWTFGQGTKVEIK
modifications: one-armed monovalent antibody
effect on G55 tumor growth (G55): no significant effect
